Measured values reported in patent publication US8691799B2, “Materials and methods for treatment of cancer and identification of anti-cancer compounds” (priority 2001, dated 2014).

Test system: v-Src/NIH 3T3 tumors
Assay: Antitumor activity, v-Src-transformed NIH 3T3 tumors in nude mice
Type: in vivo
Source text: Antitumor Activity in the Nude Mouse Tumor Xenograft Model. Nude mice and C57 BL-6 black mice (National Cancer Institute, Bethesda, Md.) were maintained in accordance with the Institutional Animal Care and Use Committee (IACUC) procedures and guidelines. v-Src- and oncogenic H-Ras-transformed NIH 3T3, A549, MDA-MB-468 and Calu-1 cells were harvested, resuspended in PBS and injected s.c. into the right and left flank (10×10^6 cells per flank) of 8 week old female nude mice as reported previously (Sun, J. et al. Cancer Res., 1999, 59:4919-4926). Similarly, murine B16-F10 Melanoma cells were injected s.c. into the right and left flank (10^6 cells per flank) of C57 black mice. […] […] The tumor volumes were determined by measuring the length (l) and the width (w) and calculating the volume (V=1w^2/2) as described previously (Sun, J. et al. Cancer Res., 1999, 59:4919-4926). Statistical significance between control and treated animals were evaluated by using Student's t-test. For the mouse survival experiments, C57 BL-6 black mice were implanted s.c. with B16-F10 cells (10^5 to 10^6 cells per flank). […] Percent surviving mice was determined by monitoring the death of mice until all mice died. Two experiments of 12 animals each (6 control and 6 treated with JSI-124) were carried out. For statistical analysis: for each of the two experiments, mice receiving JSI-124 were compared to those receiving vehicle control with respect to survival using the permutation log rank test as implemented in the statistical software package, ProcStatXact (p-values are two sided and exact).

Compound: CC(C)(O)/C=C/C(=O)[C@](C)(O)[C@H]1[C@H](O)C[C@@]2(C)[C@@H]3CC=C4[C@@H](C=C(O)C(=O)C4(C)C)[C@]3(C)C(=O)C[C@]12C [JSI-124, cucurbitacin I]
- inhibition of growth of v-src transformed NIH 3T3 tumors (in words) (1 mg/Kg/day intraperitoneally): inhibits tumor growth
- inhibition of growth of v-Src/NIH 3T3 tumors (1 mg/kg/day i.p.): 64%
